Experimental data as given in patent US12448375B2, “Kinase inhibitors for the treatment of neurodegenerative diseases” (Ohio State Innovation Foundation, priority 2019, dated 2025).

How the values were obtained:
Type in all cases: biochemical
Details in all cases: HotSpot radiometric assay, 33P-ATP
JNK3 = molecular target: T1, JNK3 (Homo sapiens, UniProt P53779); test: HotSpot Kinase Assay (Reaction Biology Corp.), anti-JNK3 activity
T1 construct: purchased Reaction Biology Corp
Procedure: (§1) The anti-JNK3 activity of compounds prepared as in the previous examples was evaluated using a Reaction Biology Corp. HotSpot Kinase Assay. Base reaction buffer was 20 mM HEPES (4-(2-hydroxyethyl)-1-piperazineethanesulfonic acid) at pH 7.5 with 10 mM MgCl2, 1 mM EGTA (ethylene glycol-bis(β-aminoethyl ether)-N,N,N′,N′-tetracetic acid), 0.02% Brij™ 35, 0.02 mg/mL BSA (bovine serum albumin), 0.1 mM Na3VO4, 2 mM DTT (dithiothreitol), and 1% DMSO. Required cofactors were added individually to each kinase reaction.
(§2) Activity against related enzymes JNK1 and P38a was further assessed using the same assay.

p38a = molecular target: T2, p38a (Homo sapiens, UniProt Q16539); test: HotSpot Kinase Assay, P38a
T2 construct: purchased Reaction Biology Corp
Procedure: as §1, §2

JNK1 = molecular target: T3, JNK1 (Homo sapiens, UniProt P45983); test: HotSpot Kinase Assay, JNK1
T3 construct: purchased Reaction Biology Corp
Procedure: as §1, §2

T3 sequence (P45983 whole entry): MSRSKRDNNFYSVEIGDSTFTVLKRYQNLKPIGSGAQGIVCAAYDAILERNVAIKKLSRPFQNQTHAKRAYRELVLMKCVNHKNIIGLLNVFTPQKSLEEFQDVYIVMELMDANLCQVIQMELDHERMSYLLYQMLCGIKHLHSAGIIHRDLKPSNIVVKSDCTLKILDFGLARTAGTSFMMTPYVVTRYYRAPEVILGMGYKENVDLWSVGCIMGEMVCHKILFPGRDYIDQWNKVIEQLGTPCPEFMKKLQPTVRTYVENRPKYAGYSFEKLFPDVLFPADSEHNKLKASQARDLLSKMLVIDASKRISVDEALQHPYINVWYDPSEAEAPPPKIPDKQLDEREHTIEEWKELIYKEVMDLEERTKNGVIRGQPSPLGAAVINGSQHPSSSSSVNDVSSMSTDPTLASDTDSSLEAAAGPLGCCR
T1 sequence (P53779 whole entry): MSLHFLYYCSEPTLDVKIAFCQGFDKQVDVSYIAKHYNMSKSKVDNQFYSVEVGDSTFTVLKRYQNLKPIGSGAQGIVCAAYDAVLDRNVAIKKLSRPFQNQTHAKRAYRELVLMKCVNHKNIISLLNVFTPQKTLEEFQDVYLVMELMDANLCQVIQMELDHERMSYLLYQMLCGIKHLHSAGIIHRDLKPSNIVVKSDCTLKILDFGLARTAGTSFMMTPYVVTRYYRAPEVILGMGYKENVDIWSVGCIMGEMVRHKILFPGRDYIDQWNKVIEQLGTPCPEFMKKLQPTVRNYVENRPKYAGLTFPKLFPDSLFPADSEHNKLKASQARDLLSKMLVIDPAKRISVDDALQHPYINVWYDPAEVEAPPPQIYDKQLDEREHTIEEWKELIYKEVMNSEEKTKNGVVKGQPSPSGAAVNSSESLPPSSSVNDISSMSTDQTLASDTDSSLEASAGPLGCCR
T2 sequence (Q16539 whole entry): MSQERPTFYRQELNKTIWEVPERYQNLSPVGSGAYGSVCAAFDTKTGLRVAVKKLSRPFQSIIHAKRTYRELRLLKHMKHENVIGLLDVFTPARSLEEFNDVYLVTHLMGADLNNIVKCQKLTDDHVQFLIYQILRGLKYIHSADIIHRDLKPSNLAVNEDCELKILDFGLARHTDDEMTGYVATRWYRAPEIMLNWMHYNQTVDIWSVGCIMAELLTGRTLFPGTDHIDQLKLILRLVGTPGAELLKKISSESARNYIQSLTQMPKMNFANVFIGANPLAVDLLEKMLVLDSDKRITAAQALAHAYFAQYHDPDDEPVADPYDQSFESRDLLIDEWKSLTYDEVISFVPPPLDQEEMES

`CNC(=O)c1cc(-n2ncc3cc(Nc4c(Cl)cccc4OC)cnc32)cs1` [Compound 109, 4-(5-((2-chloro-6-methoxyphenyl)amino)-1H-pyrazolo[3,4-b]pyridin-1-yl)-N-methylthiophene-2-carboxamide] was tested. Which IC50 (JNK3) did it give?
Its IC50 is less than 200 nM.

What about the IC50 (p38a) of the same compound?
The IC50 was 200 to 1000 nM.

And the IC50 (JNK1)?
Its IC50 is greater than 1000 nM.

What does the source list for `O=C(NC1COC1)c1cc(-n2ncc3cc(Oc4ccccc4Cl)ccc32)cs1` [Compound 11, 4-(5-(2-chlorophenoxy)-1H-indazol-1-yl)-N-(oxetan-3-yl)thiophene-2-carboxamide]?
IC50 (JNK3): < 200 nM; IC50 (p38a): > 1000 nM; IC50 (JNK1): > 1000 nM

`O=C(NCCCF)c1cc(-n2ncc3cc(Oc4ccccc4Cl)cnc32)cs1` [Compound 72, 4-(5-(2-chlorophenoxy)-1H-pyrazolo[3,4-b]pyridin-1-yl)-N-(3-fluoropropyl)thiophene-2-carboxamide] was tested. Which IC50 (JNK3) did it give?
The IC50 was less than 200 nM.

And the IC50 (p38a)?
The IC50 was 200 to 1000 nM.

And the IC50 (JNK1)?
Its IC50 is 200 to 1000 nM.

`O=C(NC1CN(C2CC2)C1)c1cc(-n2ncc3cc(Oc4ccccc4Cl)ccc32)cs1` [Compound 10, 4-(5-(2-chlorophenoxy)-1H-indazol-1-yl)-N-(1-cyclopropylazetidin-3-yl)thiophene-2-carboxamide] was tested. Which IC50 (JNK3) did it give?
The IC50 was less than 200 nM.

What about the IC50 (p38a) of the same compound?
Its IC50 is 200 to 1000 nM.

What about the IC50 (JNK1) of the same compound?
Its IC50 is greater than 1000 nM.

With `COCCNC(=O)c1cc(-n2ncc3nc(Nc4ccccc4Cl)ccc32)cs1` [Compound 55, 4-(5-((2-chlorophenyl)amino)-1H-pyrazolo[4,3-b]pyridin-1-yl)-N-(2-methoxyethyl)thiophene-2-carboxamide] as the compound, how does the IC50 (JNK3) read?
The IC50 was less than 200 nM.

What about the IC50 (p38a) of the same compound?
The IC50 was 200 to 1000 nM.

What about the IC50 (JNK1) of the same compound?
Its IC50 is greater than 1000 nM.

Which results are given for `CNC(=O)c1cc(-n2ncc3cc(Oc4ccccc4Cl)cnc32)cs1` [Compound 64, 4-(5-(2-chlorophenoxy)-1H-pyrazolo[3,4-b]pyridin-1-yl)-N-methylthiophene-2-carboxamide]?
IC50 (JNK3): < 200 nM; IC50 (p38a): 200 to 1000 nM; IC50 (JNK1): 200 to 1000 nM

Which results are given for `CC(C)NC(=O)c1cc(-n2ncc3cc(Oc4ccccc4Cl)ncc32)cs1` [Compound 7, 4-(5-(2-chlorophenoxy)-1H-pyrazolo[3,4-c]pyridine-1-yl)-N-isopropylthiophene-2-carboxamide]?
IC50 (JNK3): < 200 nM; IC50 (p38a): > 1000 nM; IC50 (JNK1): > 1000 nM

`CNC(=O)c1cc(-n2ncc3cc(Nc4c(F)cccc4Cl)c(F)cc32)cs1` [Compound 111, 4-(5-((2-chloro-6-fluorophenyl)amino)-6-fluoro-1H-indazol-1-yl)-N-methylthiophene-2-carboxamide] was tested. Which IC50 (JNK3) did it give?
The IC50 was less than 200 nM.

And the IC50 (p38a)?
Its IC50 is 200 to 1000 nM.

And the IC50 (JNK1)?
Its IC50 is greater than 1000 nM.

Which IC50 (JNK3) does the source give for `CNC(=O)c1cc(-n2ncc3cc(Nc4cccc(OC)c4Cl)c(C)nc32)cs1` [Compound 81, 4-(5-((2-chloro-3-methoxyphenyl)amino)-6-methyl-1H-pyrazolo[3,4-b]pyridin-1-yl)-N-methylthiophene-2-carboxamide] here?
The IC50 was less than 200 nM.

And the IC50 (p38a)?
The IC50 was 200 to 1000 nM.

What about the IC50 (JNK1) of the same compound?
Its IC50 is 200 to 1000 nM.

With `CNC(=O)c1cc(-n2ncc3cc(Nc4ccccc4Cl)c(C)nc32)cs1` [Compound 76, 4-(5-((2-chlorophenyl)amino)-6-methyl-1H-pyrazolo[3,4-b]pyridin-1-yl)-N-methylthiophene-2-carboxamide] as the compound, how does the IC50 (JNK3) read?
Its IC50 is less than 200 nM.

What about the IC50 (p38a) of the same compound?
Its IC50 is 200 to 1000 nM.

What about the IC50 (JNK1) of the same compound?
Its IC50 is 200 to 1000 nM.

With `O=C(NCC(F)F)c1cc(-n2ncc3cc(Nc4ccccc4Cl)c(F)cc32)cs1` [Compound 39, 4-(5-((2-chlorophenyl)amino)-6-fluoro-1H-indazol-1-yl)-N-(2,2-difluoroethyl)thiophene-2-carboxamide] as the compound, how does the IC50 (JNK3) read?
The IC50 was less than 200 nM.

And the IC50 (p38a)?
Its IC50 is less than 200 nM.

What about the IC50 (JNK1) of the same compound?
Its IC50 is less than 200 nM.

For `CC(=O)N1CC(NC(=O)c2cc(-n3ncc4cc(Nc5ccccc5Cl)cnc43)cs2)C1` [Compound 71, N-(1-acetylazetidin-3-yl)-4-(5-((2-chlorophenyl)amino)-1H-pyrazolo[3,4-b]pyridin-1-yl)thiophene-2-carboxamide], which IC50 (JNK3) is on record?
Its IC50 is less than 200 nM.

And the IC50 (p38a)?
Its IC50 is less than 200 nM.

And the IC50 (JNK1)?
Its IC50 is 200 to 1000 nM.

Which results are given for `COCCNC(=O)c1cc(-n2ncc3cc(Nc4ccccc4Cl)ncc32)cs1` [Compound 17, 4-(5-((2-chlorophenyl)amino)-1H-pyrazolo[3,4-c]pyridin-1-yl)-N-(2-methoxyethyl)thiophene-2-carboxamide]?
IC50 (JNK3): < 200 nM; IC50 (p38a): < 200 nM; IC50 (JNK1): 200 to 1000 nM
